From patent US10183007B2, “Method of producing proanthocyanidin oligomer” (Nagasaki University, priority 2005, dated 2019)

Key:
[1] = DPPH radical-scavenging activity assay; format: biochemical; conditions: test concentration not given
Procedure: With respect to each sample, 1,1-diphenyl-2-picrylhydrazyl (DPPH) radical-scavenging activity was evaluated as follows. In a 96-hole microplate, 100 μL of DPPH solution (60 μM ethanol solution) was placed. Added thereto was 100 μL of ethanol solution of test sample or 100 μL of ethanol as control, and the mixture was gently mixed together and left standing at room temperature for 30 minutes. Then, absorbance at 520 nm was measured. The DPPH radical-scavenging activity was calculated by the following formula and 50% effective concentration (EC50) was calculated from The DPPH radical-scavenging activity value of test sample gradually diluted and its concentration. DPPH radical-scavenging activity(%)=[…] [Formula 1]
As substance to be compared with Invention Substance B, epicatechin and phloroglucinol (PL) were used. As substance to be compared with Invention Substances C to E, grape seed polyphenol polymer (GP) was used.

[2] = TEAC (Trolox Equivalent Antioxidant Capacity) method; format: biochemical
Procedure: TEAC (Trolox Equivalent Antioxidant Capacity) method is a method of relatively evaluating antioxidative strength by converting antioxidative activity of a compound into antioxidative activity of Trolox which is a α-tocopherol derivative and the method is widely employed as an index of antioxidative activity.
To 36 μL of 70 μM metmyoglobin solution, 300 μL of ABTS solution and […] of 5 mM phosphate buffered saline were added. Subsequently, sample solution or 1.25 mM Yrolox solution was added thereto and gently mixed together for 5 minutes at 0° C. After 167 μL of 450 μM hydrogen peroxide solution was added thereto and mixed for 10 seconds, reaction was allowed to proceed for 5 minutes at room temperature. Absorbance at 734 nm was measured and the absorbance ratio between the sample and the Trolox solution was calculated to serve as TEAC value of the sample against […] Trolox.
As substance to be compared with Invention Substances C to E, grape seed polyphenol polymer was used.

[3] = FIG. 8, comparison for Invention Substance B
[4] = FIG. 11, TEAC value against Trolox

SMILES	DPPH activity [1, 3]	TEAC activity [2, 4] [mM]	DPPH activity ([1]; FIG. 7, comparison for Invention Substance A) [%]	TEAC activity ([2]; FIG. 10, TEAC value against 1.00 mM Trolox) [mM]
Oc1cc(O)cc(O)c1 [phloroglucinol, reference compound]	little such activity	0.52		
Oc1cc(O)c([C@H]2c3c(O)cc(O)cc3O[C@H](c3ccc(O)c(O)c3)[C@@H]2O)c(O)c1 [Invention Substance B, 4-(2-phloroglucinol)-(−)-epicatechin]	significantly high scavenging activity as compared with both of the substances	1.44		
Oc1ccc(/C=C/c2cc(O)c([C@H]3c4c(O)cc(O)cc4O[C@H](c4ccc(O)c(O)c4)[C@@H]3O)c(O)c2)cc1 [Invention Substance A, 4b-(4-resveratroyl)-(−)-epicatechin]			76.1	1.33
